In PMC9760444, “Direct targeting of sEH with alisol B alleviated the apoptosis, inflammation, and oxidative stress in cisplatin-induced acute kidney injury” (International Journal of Biological Sciences, 2023):

Target: T1, soluble epoxide hydrolase (sEH) (Homo sapiens, UniProt P34913)
T1 construct: gene EPHX2; Recombinant human sEH
T1 sequence (P34913 1-555): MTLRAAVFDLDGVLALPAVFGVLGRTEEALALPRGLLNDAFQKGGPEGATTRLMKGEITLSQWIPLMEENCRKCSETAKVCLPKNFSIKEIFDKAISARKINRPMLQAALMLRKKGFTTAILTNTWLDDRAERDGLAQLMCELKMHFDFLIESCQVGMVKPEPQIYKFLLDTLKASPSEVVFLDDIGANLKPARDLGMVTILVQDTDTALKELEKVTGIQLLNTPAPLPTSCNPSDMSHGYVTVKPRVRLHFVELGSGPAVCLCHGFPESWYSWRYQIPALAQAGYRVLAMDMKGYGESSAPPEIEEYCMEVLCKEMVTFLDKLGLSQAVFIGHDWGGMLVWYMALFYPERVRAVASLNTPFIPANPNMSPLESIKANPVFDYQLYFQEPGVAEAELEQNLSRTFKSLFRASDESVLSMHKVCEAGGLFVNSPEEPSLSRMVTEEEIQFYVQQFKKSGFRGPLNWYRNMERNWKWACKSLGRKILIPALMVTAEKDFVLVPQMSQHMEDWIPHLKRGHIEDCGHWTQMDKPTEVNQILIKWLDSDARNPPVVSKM
Test: SPR (Biacore T200); supported by inhibition kinetics (Ki […]), pull-down, CETSA, SIP, DARTS
Assay type: binding

Compound: C[C@H](C[C@H](O)[C@H]1OC1(C)C)C1=C2C[C@H](O)[C@H]3[C@@]4(C)CCC(=O)C(C)(C)[C@@H]4CC[C@]3(C)[C@@]2(C)CC1 [alisol B]
- Kd: 1320 nM
